What was measured:
[1] = Inhibition of DNA polymerase (unknown origin); parameters: species or system Homo sapiens
[2] = molecular target: T1, Human immunodeficiency virus type 1 reverse transcriptase (Human immunodeficiency virus 1, UniProt Q72547); assay: Inhibition of HIV-1 RNase H
[3] = molecular target: T1, Human immunodeficiency virus type 1 reverse transcriptase; assay: Inhibition of recombinant HIV-1 reverse transcriptase associated RNase H expressed in Escherichia coli BL21 (DE3) using 5-GTTTTCTTTTCCCCCCTGAC-3 Fluorescein/5CAAAAGAAAAGGGGGGACUG-3-Dabcyl as substrate incubated for 1 hr by multilabel counter plate reader method
[4] = Inhibition of HIV-1 RNA-dependent […]; parameters: species or system Human immunodeficiency virus 1
[5] = system: Human immunodeficiency virus 1; assay: Antiviral activity against HIV-1 harboring L100I mutant infected in human MT4 cells assessed as virus-induced cytopathicity treated for 5 days by MTT assay; type: functional, organism-based; settings: Human immunodeficiency virus 1, MT4, 120 h
[6] = Inhibition of Escherichia coli DNA polymerase I
[7] = molecular target: T1, Human immunodeficiency virus type 1 reverse transcriptase; assay: Inhibition of recombinant HIV-1 reverse transcriptase associated RNA-dependent DNA polymerase activity incubated for 30 mins by liquid scintillation method
[8] = system: Human immunodeficiency virus 1; assay: Antiviral activity against wild-type HIV-1 IIIB infected in human MT4 cells assessed as virus-induced cytopathicity treated for 5 days by MTT assay; type: functional, organism-based; settings: Human immunodeficiency virus 1, IIIB, MT4, 120 h
[9] = molecular target: T1, Human immunodeficiency virus type 1 reverse transcriptase; assay: Inhibition of N-terminal 6-his-tagged HIV-1 reverse transcriptase RNase H (427 to 560 residues) transfected in Escherichia coli BL21 (DE3)
[10] = system: Human immunodeficiency virus 1; assay: Antiviral activity against HIV-1 harboring reverse transcriptase […] mutant infected in human MT4 cells assessed as reduction in virus-induced cytopathic effect; type: functional, organism-based; settings: Human immunodeficiency virus 1, MT4
[11] = Cytotoxicity against HEK-293T cells assessed as reduction in cell growth measured for 72 hrs by MTT assay; type: toxicity, cell-based; settings: human
[12] = molecular target: T1, Human immunodeficiency virus type 1 reverse transcriptase; assay: Inhibition of HIV-1 reverse transcriptase associated RNA-dependent DNA polymerase
[13] = molecular target: T1, Human immunodeficiency virus type 1 reverse transcriptase; assay: Inhibition of HIV-1 RNase H polymerase activity
Hepatitis B virus [14] = assay: Antiviral activity against HBV infected in human HepDES19 cells assessed as reduction in cccDNA accumulation by southern blot analysis; type: functional, organism-based
[15] = system: Human immunodeficiency virus 1; assay: Antiviral activity against HIV1; type: functional, organism-based
[16] = Cytotoxicity against african green monkey Vero E6 cells incubated for 24 hrs by Cell-titer 96 cell proliferation assay; type: toxicity, cell-based, Vero C1008; settings: chlorocebus sabaeus
Hepatitis B virus [17] = assay: Antiviral activity against HBV infected in AML12HBV10 cells assessed as reduction viral replication incubated for 48 hrs; type: functional, organism-based; settings: AML12HBV10, 48 h
Human alphaherpesvirus 1 [18] = assay: Antiviral activity against HSV-1 infected in African green monkey Vero cells by plaque reduction assay; type: functional, organism-based; settings: Human alphaherpesvirus 1, Vero
Human alphaherpesvirus 1 [19] = assay: Antiviral activity against HSV-1 KOS infected in African green monkey Vero cells assessed as reduction in virus induced cytopathogenicity by plaque reduction assay; type: functional, organism-based; settings: Human alphaherpesvirus 1, KOS
Human alphaherpesvirus 2 = assay: Antiviral activity against HSV-2 infected in African green monkey Vero cells assessed as reduction in virus induced cytopathogenicity by plaque reduction assay; type: functional, organism-based; settings: Human alphaherpesvirus 2, Vero
TZM = assay: Cytotoxicity against human TZM-bl cells assessed as reduction in viability incubated for 48 hrs by MTT assay; type: functional
[20] = system: Human immunodeficiency virus 1; assay: Antiviral activity against wild type HIV-1 IIIB infected in human MT4 cells assessed as protection against virus-induced cytopathic effect incubated for 5 days by MTT assay; type: functional, organism-based; settings: Human immunodeficiency virus 1, IIIB, MT4, 120 h

COc1ccc2ccccc2c1/C=N/NC(=O)c1ccc(O)c(O)c1
IC50 [1]: > 50 µM
IC50 [2]: 15 µM

NC(=O)c1c(N)sc2c1CCCCC2
IC50 [3]: 2 µM

O=C1Nc2ccccc2/C1=N/Nc1nc(-c2ccc(O)c(O)c2)cs1
IC50 [4]: 1.4 µM

COC(=O)c1c(C)cc(O)c(=O)c(O)c1Br
EC50 [5]: 2.2 µM

CC(C)(C)c1ccc(C(=O)N/N=C/c2c(O)ccc3ccccc23)cc1
IC50 [6]: 12.5 µM
IC50 [7]: 0.8 µM
EC50 [8]: 1.5 µM
IC50 [9]: 3.5 µM

O=C(Oc1ccc2c(c1OC(=O)c1ccccc1)C(=O)c1ccccc1C2=O)c1ccccc1
EC50 [10]: > 100 µM
CC50 at 72 h [11]: ~100 µM
IC50 [4]: 12 µM

Nc1ccc(S(=O)(=O)N2CCN(C(=O)c3cc(O)c(O)c(O)c3)CC2)cc1
IC50 [12]: > 50 µM

N#Cc1ccc(-c2csc(NN=C3C(=O)Nc4ccccc43)n2)cc1
IC50 [7]: 9.5 µM
IC50 [2]: 1.3 µM

Cn1c(-c2ccc(-c3ccccc3)cc2)cs/c1=N/N=C1\C(=O)Nc2ccc(Cl)cc21
IC50 [7]: 9.8 µM
IC50 [2]: 10 µM

O=C(Nc1sc2c(c1C(=O)Nc1ccccn1)CCCCC2)c1ccc(O)c(O)c1
IC50 [3]: 0.84 µM

COC(=O)c1c(C)cc(OC)c(=O)c(O)c1OC
IC50 [13]: 13.5 µM
EC50 (Hepatitis B virus [14]): 5.6 µM

COc1ccccc1C(=O)N1CCC(NC(=O)c2cc(O)c(O)c(O)c2)CC1
IC50 [13]: 13.1 µM
IC50 [12]: 39.9 µM

COc1cc(OC)cc(OC(=O)c2ccc(C(F)(F)F)cc2Nc2cc(Cl)ccc2C)c1
EC50 [15]: 5 µM
IC50 [12]: 16.1 µM
IC50 [4]: 16.1 µM
CC50 at 24 h [16]: > 50 µM

O=C(Nc1nc2n(n1)C(c1ccccc1)C=C(c1ccccc1)N2)c1ccc(O)c(O)c1 (stereo not drawn)
IC50 [9]: 1.86 µM
IC50 [12]: 20.5 µM

COc1ccc(-c2cccc(C(N)=O)c2)cc1/C=N/Nc1nc(-c2ccc([N+](=O)[O-])cc2)cs1
IC50 [2]: 4.5 µM
IC50 [4]: 8 µM

COC(=O)c1c(C)cc(OC)c(=O)c(O)c1O
EC50 (Hepatitis B virus [17]): 0.93 µM

Cc1cc(O)c(=O)c(O)c(O)c1C(=O)c1ccc(-c2ccccc2)cc1
EC50 (Human alphaherpesvirus 1 [18]): 0.052 µM
EC50 (Human alphaherpesvirus 1 [19]): 0.052 µM
EC50 (Human alphaherpesvirus 2): 0.05 µM

Nc1nn(C(=O)c2ccc(Cl)cc2)c(N)c1C(=S)Nc1ccccc1
CC50 (TZM): 44 µM
IC50 [13]: 7 µM
EC50 [20]: 25 µM
IC50 [12]: 17 µM

COc1cc(C)c(C(=O)c2ccc(-c3ccccc3)cc2)c(O)c(O)c1=O
EC50 (Human alphaherpesvirus 1 [18]): 0.22 µM

COc1ccc2ccccc2c1/C=N/NC(=O)c1ccc(C(C)(C)C)cc1
IC50 [1]: 2 µM
IC50 [2]: 3 µM

COc1c(/C=C/C(=O)c2ccc(-c3ccccc3)cc2)ccc2ccccc12
IC50 [2]: 6 µM
IC50 [4]: 4 µM

O=c1oc(-c2ccc(O)c(O)c2)nc2sc3ccccc3c12
IC50 [3]: 0.53 µM

COC(=O)c1c(C)cc(O)c(=O)c(O)c1O
IC50 [13]: 1.5 µM
EC50 (Human alphaherpesvirus 1 [18]): 0.19 µM
EC50 (Human alphaherpesvirus 1 [19]): 0.19 µM
EC50 (Hepatitis B virus [14]): 6 µM
EC50 (Human alphaherpesvirus 2): 0.4 µM

CC1=CC(c2ccccc2)n2nc(NC(=O)CCCc3ccc(C)cc3)nc2N1 (stereo not drawn)
IC50 [9]: 13.1 µM
IC50 [12]: > 100 µM

O=C1c2ccccc2C(=O)c2c1ccc(O)c2O [ATHRAQUINONES A]
IC50 [3]: > 100 µM
IC50 [4]: 79 µM

Reference: ChEMBL document CHEMBL5518155, “Recent advances on dual inhibitors targeting HIV reverse transcriptase associated polymerase and ribonuclease H” (Eur J Med Chem, 2023)
